Laboratory results from US8653111B2, “Substituted dihydropyrazolones for treating cardiovascular and hematological diseases” (Bayer Intellectual Property GmbH, priority 2006, dated 2014).
Structures can show the parent of a compound that is named as a salt.

These compounds were tested against HIF prolyl hydroxylase (assay: Inhibition of the activity of HIF prolyl hydroxylase (VBC complex binding to hydroxylated peptide substrate)). Conditions: cell lysate containing prolyl hydroxylase, peptide biotin-DLDLEMLAPYIPMDDDFQL as substrate.
Type: biochemical
Method: 1. In vitro Tests for Determination of the Activity and Selectivity of HIF Prolyl 4-Hydroxylase Inhibitors 1.a) Inhibition of the Activity of HIF Prolyl Hydroxylase:
Hydroxylated HIF bonds specifically to the von Hippel-Lindau protein-elongin B-elongin C complex (VBC complex). This interaction occurs only if HIF is hydroxylated on a conserved prolyl radical. It is the basis for the biochemical determination of HIF prolyl hydroxylase activity. The test is carried out as described [Oehme F., Jonghaus W., Narouz-Ott L., Huetter J., Flamme I., Anal. Biochem. 330 (1), 74-80 (2004)]:
A clear 96-well microtiter plate coated with NeutrAvidin HBC (Pierce) is incubated with blocker casein for 30 minutes. The plate is then washed three times with 200 μl each time of wash buffer (50 mM Tris, pH 7.5, 100 mM NaCl, 10% (v/v) blocker casein, 0.05% (v/v) Tween 20) per well. The peptide biotin-DLDLEMLAPYIPMDDDFQL (Eurogentec, 4102 Seraing, Belgium) is added in a concentration of 400 nM in 100 μl wash buffer. This peptide serves as a substrate for the prolyl hydroxylation and is bonded to the microtiter plate. After incubation for 60 minutes, the plate is washed three times with wash buffer, incubated with 1 mM biotin in blocker casein for 30 minutes and then washed again three times with wash buffer.
To carry out the prolyl hydroxylase reaction, the peptide substrate bonded to the plate is incubated with a cell lysate containing prolyl hydroxylase for 1 to 60 minutes. The reaction takes place in 100 μl reaction buffer (20 mM Tris, pH 7.5, 5 mM KCl, 1.5 mM MgCl2, 1 μM-1 mM 2-oxoglutarate, 10 μM FeSO4, 2 mM ascorbate) at room temperature. The reaction mixture moreover contains various concentrations of the prolyl hydroxylase inhibitor to be tested. The test substance is preferably, but not exclusively, employed at concentrations of between 1 nM and 100 μM. The reaction is stopped by washing the plate three times with wash buffer.
For quantitative determination of the prolyl hydroxylation, a fusion protein which contains both thioredoxin from E. coli and the VBC complex in 80 μl bonding buffer (50 mM Tris, pH 7.5, 120 mM NaCl) is added. After 15 minutes, 10 μl of a solution of polyclonal anti-thioredoxin antibodies from rabbit in bonding buffer are added. After a further 30 minutes, 10 μl of a solution of anti-rabbit immunoglobulin coupled to horseradish peroxidase in bonding buffer are added. After incubation at room temperature for 30 minutes, the plate is washed three times with wash buffer in order to remove non-bonded VBC complex and antibodies. To determine the amount of bonded VBC complex, the plate is incubated with TMB for 15 minutes. The color reaction is ended by addition of 100 μl 1 M sulfuric acid. The amount of bonded VBC complex is determined by measurement of the optical density at 450 nm. It is proportional to the amount of hydroxylated proline in the peptide substrate.
Alternatively, a VBC complex coupled to europium (Perkin Elmer) can be used for detection of the prolyl hydroxylation. In this case, the amount of bonded VBC complex is determined by the fluorescence with respect to time. The use of VBC complex labeled with [^35S]-methionine is moreover possible. For this, the radioactively labeled VBC complex can be prepared by in vitro transcription-translation in reticulocyte lysate.

Compound	IC50
O=c1c(-n2cnc(C(F)(F)F)c2)c[nH]n1-c1ccc(CO)cn1 [Example 12, 2-[5-(Hydroxymethyl)pyridin-2-yl]-4-[4-(trifluoromethyl)-1H-imidazol-1-yl]-1,2-dihydro-3H-pyrazol-3-one]	0.75 µM
CC(C)(C)COc1ccc(-n2[nH]cc(-n3ccnn3)c2=O)nc1 [Example 85, 2-[5-(2,2-Dimethylpropoxy)pyridin-2-yl]-4-(1H-1,2,3-triazol-1-yl)-1,2-dihydro-3H-pyrazol-3-one hydrochloride]	0.19 µM
COC1CCCN(c2cc(-n3[nH]cc(-n4ccnc4)c3=O)ncn2)C1 (centres unmarked) [Example 166]	0.69 µM
CCc1cc(-n2[nH]cc(-n3cnc(C(F)(F)F)c3)c2=O)ncn1 [Example 60]	1.4 µM
O=c1c(-c2nnc(C(F)(F)F)s2)c[nH]n1-c1ccccn1 [Example 5]	1.2 µM
O=c1c(-n2ccnn2)c[nH]n1-c1cc(C2CC2)ncn1 [Example 17, 2-(6-Cyclopropylpyrimidin-4-yl)-4-(1H-1,2,3-triazol-1-yl)-1,2-dihydro-3H-pyrazol-3-one hydrochloride]	0.56 µM
Cc1cn(-c2c[nH]n(-c3cnccn3)c2=O)nn1 [Example 43]	1.8 µM
Cc1cc(-n2[nH]cc(-n3ccnn3)c2=O)ncc1Br [Example 61]	1.1 µM
O=c1c(-n2ccnc2)c[nH]n1-c1cc(N2CC(O)C2)ncn1 [Example 101, 2-[6-(3-Hydroxyazetidin-1-yl)pyrimidin-4-yl]-4-(1H-imidazol-1-yl)-1,2-dihydro-3H-pyrazol-3-one hydrochloride]	1.7 µM
CCSc1cc(-n2[nH]cc(-n3ccnn3)c2=O)ncn1 [Example 103, 2-[6-(Ethylsulfanyl)pyrimidin-4-yl]-4-(1H-1,2,3-triazol-1-yl)-1,2-dihydro-3H-pyrazol-3-one hydrochloride]	0.35 µM
CC(C)c1cn(-c2c[nH]n(-c3ccc(CO)cn3)c2=O)nn1 [Example 45]	0.78 µM
CC(C)(C)OC(=O)c1ccc(-n2[nH]cc(-n3ccnn3)c2=O)nc1 [Example 62, 6-[5-Oxo-4-(1H-1,2,3-triazol-1-yl)-2,5-dihydro-1H-pyrazol-1-yl]pyridine-3-carboxylic acid tert-butyl ester hydrochloride]	0.05 µM
O=c1c(-n2ccnc2)c[nH]n1-c1cc(N2CCCCC2)ncn1 [Example 10, 4-(1H-Imidazol-1-yl)-2-(6-piperidin-1-ylpyrimidin-4-yl)-1,2-dihydro-3H-pyrazol-3-one]	0.5 µM
Cc1cc(-c2c[nH]n(-c3ccccn3)c2=O)on1 [Example 50]	1.4 µM
Cc1cnc(-n2[nH]cc(-n3ccnc3)c2=O)cc1C [Example 91, 2-(4,5-Dimethylpyridin-2-yl)-4-(1H-imidazol-1-yl)-1,2-dihydro-3H-pyrazol-3-one hydrochloride]	2.8 µM
O=c1c(-n2ccnn2)c[nH]n1-c1cc(C(F)(F)F)ccn1 [Example 83, 4-(1H-1,2,3-Triazol-1-yl)-2-[4-(trifluoromethyl)pyridin-2-yl]-1,2-dihydro-3H-pyrazol-3-one hydrochloride]	1.9 µM
CC1CCN(c2cc(-n3[nH]cc(-n4ccnn4)c3=O)ncn2)CC1 [Example 129]	0.36 µM
O=c1c(-n2ccnn2)c[nH]n1-c1cc(N2CCSCC2)ncn1 [Example 113]	0.74 µM
Cc1ccnc(-n2[nH]cc(-n3ccnn3)c2=O)c1 [Example 7, 2-(4-Methylpyridin-2-yl)-4-(1H-1,2,3-triazol-1-yl)-1,2-dihydro-3H-pyrazol-3-one hydrochloride]	0.34 µM
O=c1c(-n2ccnn2)c[nH]n1-c1cc(N2CCOCC2)ncn1 [Example 72, 2-(6-Morpholin-4-ylpyrimidin-4-yl)-4-(1H-1,2,3-triazol-1-yl)-1,2-dihydro-3H-pyrazol-3-one hydrochloride]	0.49 µM
